Consider 19 compounds from patent publication US20250304550A1, “BROMODOMAIN AND EXTRA-TERMINAL (BET) SUBFAMILY BROMODOMAIN 1 (BD1) SELECTIVE INHIBITORS AND METHODS USING SAME” (Baylor College of Medicine, priority 2022, published 2025).

A short description of data set [1]: Metabolic stability assay in mouse liver microsomes. It is filed as in vitro ADME. For orientation: Liver microsomes are vesicles of endoplasmic reticulum, rich in cytochrome P450 enzymes.
The nature of data set [2]: Metabolic stability assay in human liver microsomes. The data set is classed as in vitro ADME.
A further data set has as its target BRDT-BD1 (Homo sapiens (Human), UniProt Q58F21). The data set can be described thus: AlphaScreen bromodomain proximity assay (biotinylated JQ1 competition). The data set is classed as binding. Particulars: for IC50: AlphaScreen; for BRDT-BD1 vs. BRDT-BD2 fold: BD1 selectivity, AlphaScreen IC50 ratio; for fold loss of selectivity BRDT-BD1 over BRDT-BD2: compared to compound 2.

For the next data set, the target named is BRD4-BD1 (Homo sapiens (Human), UniProt O60885). Described as above. The data set is classed as binding. Particulars: for BRD4-BD1 vs. BRD4-BD2 fold: BD1 selectivity, AlphaScreen IC50 ratio. A general note: Alpha assays give light when donor and acceptor beads are brought close together.
The test system of data set [3] is BRD4-dependent AML cell lines. In words: Cell viability testing (CellTiterGlo, 72 hours) in AML cell lines. The data set is classed as cell-based.
Another data set deals with BRDT-BD2 (Homo sapiens (Human), UniProt Q58F21). The data set can be described thus: AlphaScreen bromodomain proximity assay (biotinylated JQ1 competition). Particulars: in Table 4 '—' = not efficient. It is filed as binding.
The next data set deals with BRD4-BD2 (Homo sapiens (Human), UniProt O60885). Described as above. The data set is classed as binding. The conditions noted are these: in Table 4 '—' = not efficient.
Another data set deals with NanoLuc-BET BD1. In words: NanoBRET target engagement intracellular BET bromodomain assay in HEK293 cells. The conditions noted are these: transiently transfected HEK293 cells. It is filed as cell-based, human. In general terms: In BRET a luciferase serves as donor, and the signal depends on an acceptor being close.
The next data set concerns BD2. The conditions noted are these: background statement; cited from earlier work.
Where [4] appears, read: 0.5 mg protein/mL, compound 2.0 μM, NADPH 1.0 mM.

Take `Cc1nnc2n1-c1ccc(Cl)cc1C(c1ccccc1)=NC2` [Alprazolam, reference compound]: in [1] (setting [4]), the “MLM t1/2” value is 5.03 h. Further, in data set [2] (setting [4]), the “HLM t1/2” value is 14.4 h.

For `CNC(=O)C(CC1CCN(C(=O)Cc2ccc3[nH]c(=O)cc(C)c3c2)CC1)NC(=O)c1ccc(-c2ccc(C)cc2C)cn1` (centres unmarked) [Compound 1, 5-(2,4-dimethylphenyl)-N-(3-(1-(2-(4-methyl-2-oxo-1,2-dihydroquinolin-6-yl)acetyl)piperidin-4-yl)-1-(methylamino)-1-oxopropan-2-yl)picolinamide], at BRDT-BD1, the IC50 (as a rule, the concentration needed to halve the response being measured) stood at 5.7 nM and the “BRDT-BD1 vs. BRDT-BD2 fold” value stood at 2246 fold.

On to `CNC(=O)[C@H](CC1CCN(C(=O)Cc2ccc3[nH]c(=O)cc(C)c3c2)CC1)NC(=O)c1ccc(-c2ccc(C)cc2C)cn1` [Compound 3, (S)-5-(2,4-dimethylphenyl)-N-(3-(1-(2-(4-methyl-2-oxo-1,2-dihydroquinolin-6-yl)acetyl)piperidin-4-yl)-1-(methylamino)-1-oxopropan-2-yl)picolinamide], for which, on BRDT-BD1, the IC50 came to 96.6 nM and the “BRDT-BD1 vs. BRDT-BD2 fold” value is recorded as 65 fold. Besides, on BRD4-BD1 (AlphaScreen), the “fold greater affinity for BRD4-BD1 than BRDT-BD1” value was 4 fold. In [3], the “cellular potency in AML cell lines (in words)” value is listed as “minimal effect”.

Turning to `CNC(=O)[C@H](CC1CCN(C(=O)Cc2ccc3[nH]c(=O)cc(C)c3c2)CC1)NC(=O)c1ccc(-c2ccccc2)cn1` [Compound 5, (S)-N-(3-(1-(2-(4-methyl-2-oxo-1,2-dihydroquinolin-6-yl)acetyl)piperidin-4-yl)-1-(methylamino)-1-oxopropan-2-yl)-5-phenylpicolinamide], the “cellular potency in AML cell lines (in words)” value in [3] is listed as “minimal activity”.

As to `CNC(=O)[C@H](CC1CCN(C(=O)Cc2ccc3[nH]c(=O)cc(C)c3c2)CC1)NC(=O)c1ccc(C(F)(F)F)cn1` [Compound 7, (S)-N-(3-(1-(2-(4-methyl-2-oxo-1,2-dihydroquinolin-6-yl)acetyl)piperidin-4-yl)-1-(methylamino)-1-oxopropan-2-yl)-5-(trifluoromethyl)picolinamide], the IC50 at BRDT-BD1 worked out at 3.8 nM; on BRD4-BD1 (AlphaScreen) it was 7.4 nM.

`CNC(=O)[C@@H](CC1CCN(C(=O)Cc2ccc3[nH]c(=O)cc(C)c3c2)CC1)NC(=O)c1ccc(-c2ccc(Cl)cc2)cn1` [Compound 8, (R)-5-(4-chlorophenyl)-N-(3-(1-(2-(4-methyl-2-oxo-1,2-dihydroquinolin-6-yl)acetyl)piperidin-4-yl)-1-(methylamino)-1-oxopropan-2-yl)picolinamide]: the IC50 at BRDT-BD2 stood at 33800 nM; at BRDT-BD1 it was 5.1 nM; on BRD4-BD2, 19900 nM; on BRD4-BD1 (AlphaScreen), 12.8 nM. On BRDT-BD1, the “BRDT-BD1 vs. BRDT-BD2 fold” value was 6,633 fold. Besides, the “BRD4-BD1 vs. BRD4-BD2 fold” value on BRD4-BD1 is listed as 1,553 fold.

Turning to `CNC(=O)[C@@H](CC1CCN(C(=O)Cc2ccc3[nH]c(=O)cc(C)c3c2)CC1)NC(=O)c1ccc(-c2ccc(Cl)c(F)c2)cn1` [Compound 9, (R)-5-(4-chloro-3-fluorophenyl)-N-(3-(1-(2-(4-methyl-2-oxo-1,2-dihydroquinolin-6-yl)acetyl)piperidin-4-yl)-1-(methylamino)-1-oxopropan-2-yl)picolinamide], the IC50 is 22600 nM on BRDT-BD2, 4.7 nM at BRDT-BD1, 14000 nM on BRD4-BD2 and 9.8 nM on BRD4-BD1 (AlphaScreen). Further, the “BRDT-BD1 vs. BRDT-BD2 fold” value on BRDT-BD1 is 4,799 fold. Further, the “BRD4-BD1 vs. BRD4-BD2 fold” value at BRD4-BD1 is on record as 1,423 fold.

Turning to `CNC(=O)C(CC1CCN(C(=O)Cc2ccc3[nH]c(=O)cc(C)c3c2)CC1)NC(=O)c1ccccn1` (centres unmarked) [Compound 11, N-(3-(1-(2-(4-methyl-2-oxo-1,2-dihydroquinolin-6-yl)acetyl)piperidin-4-yl)-1-(methylamino)-1-oxopropan-2-yl)picolinamide], the IC50 on BRDT-BD2 came out at 19400 nM; on BRDT-BD1 it was 20.2 nM; at BRD4-BD2 it was 32600 nM; on BRD4-BD1 (AlphaScreen), 15.7 nM. The “BRDT-BD1 vs. BRDT-BD2 fold” value on BRDT-BD1 is listed as 960 fold. At BRDT-BD1, the “fold loss of selectivity BRDT-BD1 over BRDT-BD2” value came to 5 fold. In addition, the “BRD4-BD1 vs. BRD4-BD2 fold” value at BRD4-BD1 was 2,078 fold.

`CNC(=O)C(CC1CCN(C(=O)Cc2ccc3[nH]c(=O)cc(C)c3c2)CC1)NC(=O)c1ccc(C(F)(F)F)cn1` (centres unmarked) [Compound 12, N-(3-(1-(2-(4-methyl-2-oxo-1,2-dihydroquinolin-6-yl)acetyl)piperidin-4-yl)-1-(methylamino)-1-oxopropan-2-yl)-5-(trifluoromethyl)picolinamide]: the IC50 on BRDT-BD2 came to 7190 nM; at BRDT-BD1 it was 14 nM; on BRD4-BD2, 8800 nM; at BRD4-BD1 (AlphaScreen) it was 6.9 nM. Also, the “BRDT-BD1 vs. BRDT-BD2 fold” value on BRDT-BD1 was found to be 513 fold. Further, the “BRD4-BD1 vs. BRD4-BD2 fold” value at BRD4-BD1 is 1,275 fold.

Turning to `Cc1ccc(-c2ccc(C(=O)NC(C)CC3CCN(C(=O)Cc4ccc5[nH]c(=O)cc(C)c5c4)CC3)nc2)c(C)c1` (centres unmarked) [Compound 14, 5-(2,4-dimethylphenyl)-N-(1-(1-(2-(4-methyl-2-oxo-1,2-dihydroquinolin-6-yl)acetyl)piperidin-4-yl)propan-2-yl)picolinamide], the IC50 on BRDT-BD2 came out at 23400 nM; at BRDT-BD1, 31 nM; on BRD4-BD2, 20000 nM; on BRD4-BD1 (AlphaScreen), 52.4 nM. Further, the “BRDT-BD1 vs. BRDT-BD2 fold” value at BRDT-BD1 came out at 756 fold. Besides, the “fold loss of selectivity BRDT-BD1 over BRDT-BD2” value on BRDT-BD1 came out at 6.5 fold. Moreover, the “BRD4-BD1 vs. BRD4-BD2 fold” value at BRD4-BD1 came out at 381 fold.

For `Cc1ccc(-c2ccc(C(=O)NCCC3CCN(C(=O)Cc4ccc5[nH]c(=O)cc(C)c5c4)CC3)nc2)c(C)c1` [Compound 15, 5-(2,4-dimethylphenyl)-N-(2-(1-(2-(4-methyl-2-oxo-1,2-dihydroquinolin-6-yl)acetyl)piperidin-4-yl)ethyl)picolinamide], the IC50 came to 67800 nM at BRDT-BD2, 33.7 nM at BRDT-BD1, 8690 nM at BRD4-BD2 and 27.8 nM at BRD4-BD1 (AlphaScreen). The “BRDT-BD1 vs. BRDT-BD2 fold” value at BRDT-BD1 is 2012 fold. Besides, the “BRD4-BD1 vs. BRD4-BD2 fold” value at BRD4-BD1 is 312 fold.

`Cc1cc(=O)[nH]c2ccc(CC(=O)N3CCC(CCNC(=O)c4ccccn4)CC3)cc12` [Compound 16, N-(2-(1-(2-(4-methyl-2-oxo-1,2-dihydroquinolin-6-yl)acetyl)piperidin-4-yl)ethyl)picolinamide]: the IC50 worked out at 6800 nM on BRDT-BD2, 35.4 nM on BRDT-BD1, 75200 nM on BRD4-BD2 and 13.8 nM on BRD4-BD1 (AlphaScreen). On BRDT-BD1, the “BRDT-BD1 vs. BRDT-BD2 fold” value came to 192 fold. Besides, the “BRD4-BD1 vs. BRD4-BD2 fold” value at BRD4-BD1 was 5,449 fold.

For the compound `Cc1cc(=O)[nH]c2ccc(CC(=O)N3CCC(CCNC(=O)c4ccccc4)CC3)cc12` [Compound 17, N-(2-(1-(2-(4-methyl-2-oxo-1,2-dihydroquinolin-6-yl)acetyl)piperidin-4-yl)ethyl)benzamide], the IC50 at BRDT-BD2 stood at 10400 nM; at BRDT-BD1, 148 nM; at BRD4-BD1 (AlphaScreen), 47.9 nM. Also, the “BRDT-BD1 vs. BRDT-BD2 fold” value at BRDT-BD1 is given as 70 fold.

On to `Cc1cc(=O)[nH]c2ccc(CC(=O)N3CCC(CCNC(=O)c4ccc5ccccc5n4)CC3)cc12` [Compound 18, N-(2-(1-(2-(4-methyl-2-oxo-1,2-dihydroquinolin-6-yl)acetyl)piperidin-4-yl)ethyl)quinoline-2-carboxamide], for which the IC50 at BRDT-BD1 was determined as 81.3 nM; at BRD4-BD1 (AlphaScreen), 122 nM.

`Cc1cc(=O)[nH]c2ccc(CC(=O)N3CCC(CCNC(=O)c4cc5ccccc5cn4)CC3)cc12` [Compound 19, N-(2-(1-(2-(4-methyl-2-oxo-1,2-dihydroquinolin-6-yl)acetyl)piperidin-4-yl)ethyl)isoquinoline-3-carboxamide]: the results for the IC50 at BRDT-BD1 and on BRD4-BD1 (AlphaScreen) were 116 nM and 119 nM, respectively.

Take `Cc1cc(=O)[nH]c2ccc(CC(=O)N3CCC(CCNC(=O)c4nccc5ccccc45)CC3)cc12` [Compound 20, N-(2-(1-(2-(4-methyl-2-oxo-1,2-dihydroquinolin-6-yl)acetyl)piperidin-4-yl)ethyl)isoquinoline-1-carboxamide]: the IC50 at BRDT-BD1 turned out to be 638 nM; at BRD4-BD1 (AlphaScreen), 341 nM.

With `Cc1cc(=O)[nH]c2ccc(CC(=O)N3CCN(CCNC(=O)c4ccccn4)CC3)cc12` [Compound 21, N-(2-(4-(2-(4-methyl-2-oxo-1,2-dihydroquinolin-6-yl)acetyl)piperazin-1-yl)ethyl)picolinamide], the results for the IC50 at BRDT-BD2, at BRDT-BD1 and on BRD4-BD1 (AlphaScreen) were 71800 nM, 5200 nM and 1300 nM, respectively. Also, the “BRDT-BD1 vs. BRDT-BD2 fold” value on BRDT-BD1 turned out to be 13.8 fold.

Consider `Cc1sc2c(c1C)C(c1ccc(Cl)cc1)=N[C@@H](CC(=O)OC(C)(C)C)c1nnc(C)n1-2` [JQ1, tert-butyl (S)-2-(4-(4-chlorophenyl)-2,3,9-trimethyl-6H-thieno[3,2-f][1,2,4]triazolo[4,3-a][1,4]diazepin-6-yl)acetate, reference compound], for which the “inhibition of tracer binding, BD1 vs BD2 (in words)” value in the data set with NanoLuc-BET BD1 is “binds both BD1 and BD2 equally”. The “metabolic stability in mouse liver microsomes (in words)” value in data set [1] (mouse, microsomes) is listed as “labile”. In addition, the “half-life in human liver microsomes (in words)” value in data set [2] (human, microsomes) is “quite low”.

With `COc1cc(OC)c2c(=O)[nH]c(-c3cc(C)c(OCCO)c(C)c3)nc2c1` [RVX-208], in the data set on BD2, the BD2 potency is listed as more than 100 nM and the “selectivity over BD1 domains” value was approximately 10 fold.
